According to US20260078135A1, “POLYCYCLIC QUINAZOLINES FOR INHIBITION OF ERBB2” (Enliven Inc., priority 2022, published 2026):

Experiments:
[1] = biological target: T1, phosphorylated ERBB2 (pERBB2) (Homo sapiens, UniProt P04626); experiment: Detection of phosphorylated ERBB2 (pERBB2) by ELISA in BT-474 cells; type: cell-based; details: four hour incubation
T1 construct: endogenous in cells; host or cells: BT-474
Procedure: BT-474 cells were seeded into a 96-well at 2.0*10^4 cells/100 μl/well. Compounds were dissolved and serially diluted in DMSO. The compounds were then were added, mixed, and incubated for four hours at 37° C., 5% CO2. Compounds were added using four-fold dilutions at final concentrations ranging from 10 μM to 0.01 nM. Following the four hour incubation with compounds, cell lysates were prepared. Plates were centrifuged for 5 μmin at 3000 RPM, and supernatant was removed from each well. Cells were washed 3 times by resuspension in 150 μl PBS, followed by centrifugation and removal of the supernatant, as above. 100 μl of cell lysis buffer (Boston BioProducts, cat #BP-115D) supplied with 1× complete ULTRA cocktail inhibitor (Thermo ScientificTM, cat #78443) was then added to the washed cells. Cells were incubated with lysis buffer for 1 hour at 4° C., and then stored at -80° C. Enzyme-linked immunosorbent assays (ELISA) were performed to measure phosphorylated ERBB2 levels. […] The next day, plates were washed with PBS+0.05% Tween20 (PBST). 150 μl of 5% BSA blocking solution was added for 1 hour at room temperature, with shaking. Plates were washed with PBST. Cell lysates were thawed and 100 μl of lysate was added to the ELISA plate. The plates were incubated for 2 hours at room temperature, with shaking. ELISA plates were then washed with PBST and 100 μl of an HRP-labeled detection antibody that binds phosphorylated tyrosine (R&D Systems, cat #841913) was added to each well. Plates were incubated for 1 hour at room temperature, with shaking. Plates were then washed with PBST, and 100 μl TMB substrate solution (R&D Systems, cat #DY999) was added. Plate were incubated in the dark for 20 minutes at room temperature. 50 μl of Stop solution (R&D Systems, cat #DY994) (50 μl) was added to each well and mixed. Optical density at 450 nm was read on an EnSpire plate reader (Perkin Elmer). The remaining kinase activity by calculated using the following formula: % Relative activity=100×([…]). The low and high control values (“LC” and “HC”) were generated from lysate from wells without cells or with cells treated with 0.1% DMSO, respectively.

[2] = biological target: T2, phosphorylated EGFR (pEGFR) (Homo sapiens, UniProt P00533); experiment: Detection of phosphorylated EGFR (pEGFR) by AlphaLISA in EGF-stimulated A431 cells; type: cell-based; details: A431 cells (10% FBS), 4 hours incubation, EGF 30 ng/mL for 10 minutes
T2 construct: performed to measure phosphorylated EGFR levels using A431 cells (10% FBS); endogenous in cells; host or cells: A431
Procedure: Enzyme-linked immunosorbent assays (ELISA) were performed to measure phosphorylated EGFR levels using A431 cells (10% FBS). A431 (1.0*10^4 cells/40 μl/well) cells were seeded in 384 well. Compounds were dissolved in DMSO, serially diluted in DMSO and then were added, mixed, and incubated for 4 hours at 37° C., 5% C02. Following the 4-hours incubation, cells were stimulated for 10 minutes with EGF (Invitrogen, cat #PHG0311) at a final concentration of 30 ng/mL in the incubator. The media was aspirated and cells were lysed in 10 μL lysis buffer with protease and phosphatase inhibitors (PerkinElmer, cat #ALSU-PEGFR-A50K). The plates were placed on a shaker for 5 μminutes and then incubated for 30 min at 4° C. for complete lysis. The lysate was transferred to an Optiplate (Perkin Elmer, cat #6007290).
Acceptor mix (PerkinElmer, cat #ALSU-PEGFR-A50K) was prepared just before use and 5 μL was dispensed to all the wells, followed by a 1.5-2 h incubation at room temperature in dark. The donor mix (PerkinElmer, cat #ALSU-PEGFR-A50K) was prepared under low light conditions prior to use and 5 μl of donor mix was added to all the wells under subdued lighting or green filters. The plates were placed on a shaker for 5 μmin, sealed, and incubated overnight at room temperature in dark. Plates were read on the Envision (PerkinElmer) using standard AlphaLISA settings.
The percentage of inhibition on EGFR phosphorylation was calculated following equation: % Inhibition=100×(LumHC−LumSample)/(LumHC−LumLC). The low and high controls (LC/HC) are generated from lysate from wells with cells treated with DMSO or […] Staurosporine (BioAustralis, cat #BIA-S1086), […]. IC50 values were calculated by fitting the Curve using XLfit (v5.3.1.3), equation 201: Y=Bottom+(Top−Bottom)/(1+10^((Log IC50−X)*HillSlope)).

T2 sequence (P00533 25-1210): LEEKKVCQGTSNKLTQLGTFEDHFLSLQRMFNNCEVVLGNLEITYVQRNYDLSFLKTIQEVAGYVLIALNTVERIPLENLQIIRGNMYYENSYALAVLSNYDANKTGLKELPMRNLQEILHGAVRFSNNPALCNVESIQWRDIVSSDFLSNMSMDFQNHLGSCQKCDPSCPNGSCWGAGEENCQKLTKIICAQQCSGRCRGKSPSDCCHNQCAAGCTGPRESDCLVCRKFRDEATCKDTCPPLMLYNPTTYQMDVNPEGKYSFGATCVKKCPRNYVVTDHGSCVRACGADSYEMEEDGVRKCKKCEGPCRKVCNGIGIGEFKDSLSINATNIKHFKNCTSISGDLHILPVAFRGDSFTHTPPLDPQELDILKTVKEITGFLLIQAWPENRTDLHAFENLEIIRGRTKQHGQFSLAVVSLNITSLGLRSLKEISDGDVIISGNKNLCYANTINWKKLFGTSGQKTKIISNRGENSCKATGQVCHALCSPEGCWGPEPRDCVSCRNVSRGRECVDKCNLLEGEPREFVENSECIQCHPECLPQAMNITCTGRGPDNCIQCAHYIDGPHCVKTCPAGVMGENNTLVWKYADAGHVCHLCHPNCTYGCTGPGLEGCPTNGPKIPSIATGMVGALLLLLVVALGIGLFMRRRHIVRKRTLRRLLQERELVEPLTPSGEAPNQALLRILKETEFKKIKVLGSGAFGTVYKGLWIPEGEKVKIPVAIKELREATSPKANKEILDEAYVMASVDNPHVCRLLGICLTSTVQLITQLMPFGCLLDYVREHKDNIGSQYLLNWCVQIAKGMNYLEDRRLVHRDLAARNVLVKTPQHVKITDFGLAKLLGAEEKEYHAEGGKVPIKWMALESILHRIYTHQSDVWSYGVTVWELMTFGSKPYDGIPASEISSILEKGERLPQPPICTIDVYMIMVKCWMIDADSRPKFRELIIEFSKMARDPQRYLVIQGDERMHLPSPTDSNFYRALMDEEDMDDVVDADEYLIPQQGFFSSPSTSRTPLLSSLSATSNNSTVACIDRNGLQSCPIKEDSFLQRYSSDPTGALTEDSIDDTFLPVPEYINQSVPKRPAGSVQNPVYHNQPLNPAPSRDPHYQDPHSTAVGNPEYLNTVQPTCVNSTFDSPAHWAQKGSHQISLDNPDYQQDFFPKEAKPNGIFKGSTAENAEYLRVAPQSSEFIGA
T1 sequence (P04626 23-1255): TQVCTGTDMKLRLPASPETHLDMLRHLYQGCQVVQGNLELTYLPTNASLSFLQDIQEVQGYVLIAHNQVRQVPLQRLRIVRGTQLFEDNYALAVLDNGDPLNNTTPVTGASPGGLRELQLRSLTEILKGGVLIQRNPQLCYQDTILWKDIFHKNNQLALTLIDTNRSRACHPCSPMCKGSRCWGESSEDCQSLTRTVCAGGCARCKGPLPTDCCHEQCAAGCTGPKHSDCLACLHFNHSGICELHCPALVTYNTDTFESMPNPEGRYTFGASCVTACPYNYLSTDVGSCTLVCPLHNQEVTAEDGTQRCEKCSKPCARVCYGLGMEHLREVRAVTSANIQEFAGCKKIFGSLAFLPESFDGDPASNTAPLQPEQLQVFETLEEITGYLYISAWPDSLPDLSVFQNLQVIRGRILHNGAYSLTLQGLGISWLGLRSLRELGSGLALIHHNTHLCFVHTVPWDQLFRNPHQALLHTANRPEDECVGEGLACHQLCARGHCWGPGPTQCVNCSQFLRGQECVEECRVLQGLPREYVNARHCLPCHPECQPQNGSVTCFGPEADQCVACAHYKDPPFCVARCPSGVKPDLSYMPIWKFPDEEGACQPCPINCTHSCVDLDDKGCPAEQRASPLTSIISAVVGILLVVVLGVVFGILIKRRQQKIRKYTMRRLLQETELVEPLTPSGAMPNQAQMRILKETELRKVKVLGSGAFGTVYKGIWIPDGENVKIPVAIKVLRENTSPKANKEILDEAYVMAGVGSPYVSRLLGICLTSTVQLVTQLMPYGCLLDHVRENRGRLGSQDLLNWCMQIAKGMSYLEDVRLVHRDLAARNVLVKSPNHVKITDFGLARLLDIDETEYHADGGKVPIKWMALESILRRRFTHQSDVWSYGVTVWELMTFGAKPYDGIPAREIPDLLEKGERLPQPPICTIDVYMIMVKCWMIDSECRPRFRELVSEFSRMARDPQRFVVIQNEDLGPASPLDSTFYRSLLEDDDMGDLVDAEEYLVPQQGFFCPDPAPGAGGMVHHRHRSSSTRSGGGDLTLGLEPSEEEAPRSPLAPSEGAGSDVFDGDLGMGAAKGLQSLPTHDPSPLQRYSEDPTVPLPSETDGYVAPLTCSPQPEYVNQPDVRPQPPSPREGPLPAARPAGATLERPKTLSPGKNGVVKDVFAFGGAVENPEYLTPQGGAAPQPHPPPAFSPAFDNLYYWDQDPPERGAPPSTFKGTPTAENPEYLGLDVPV

Structure (SMILES) | IC50 [1] | IC50 [2]
Cc1cc(Nc2ncnc3ccc4c(c23)OC[C@@H]2CN(C)CCN42)ccc1Oc1ccc2c(c1)ncn2C [Compound 48, (S)-8-methyl-N-(3-methyl-4-((1-methyl-1H-benzo[d]imidazol-5-yl)oxy)phenyl)-6,6a,7,8,9,10-hexahydropyrazino[1′,2′:4,5][1,4]oxazino[2,3-f]quinazolin-4-amine] | 0.146 µM | > 10 µM
Cc1cc(Nc2ncnc3cc4c(nc23)N2CCC[C@H]2CO4)ccc1Oc1ccn2ncnc2c1 [Compound 69, (S)—N-(4-([1,2,4]triazolo[1,5-a]pyridin-7-yloxy)-3-methylphenyl)-2,3,3a,4-tetrahydro-1H-pyrimido[4′,5′:5,6]pyrido[3,2-b]pyrrolo[1,2-d][1,4]oxazin-10-amine] | 0.0998 µM | > 10 µM
Cc1cc(Nc2ncnc3cc4c(cc23)N2CCN(C)C[C@@H]2CO4)ccc1Oc1ccc2c(c1)ncn2C [Compound 64, (R)-3-methyl-N-(3-methyl-4-((1-methyl-1H-benzo[d]imidazol-5-yl)oxy)phenyl)-1,2,3,4,4a,5-hexahydropyrazino[1′,2′:4,5][1,4]oxazino[3,2-g]quinazolin-11-amine] | 0.223 µM | > 10 µM
Cc1cc(Nc2ncnc3ccc4c(c23)OC[C@@H]2CNCCN42)ccc1Oc1ccc2c(c1)ncn2C [Compound 47, (S)—N-(3-methyl-4-((1-methyl-1H-benzo[d]imidazol-5-yl)oxy)phenyl)-6,6a,7,8,9,10-hexahydropyrazino[1′,2′:4,5][1,4]oxazino[2,3-f]quinazolin-4-amine] | 0.0912 µM | > 10 µM
Cc1cc(Nc2ncnc3cc4c(nc23)N2CCNC[C@@H]2CO4)ccc1Oc1ccc2c(c1)ncn2C [Compound 39, (R)—N-(3-methyl-4-((1-methyl-1H-benzo[d]imidazol-5-yl)oxy)phenyl)-1,2,3,4,4a,5-hexahydropyrazino[1,2-d]pyrimido[4′,5′:5,6]pyrido[3,2-b][1,4]oxazin-11-amine] | 0.279 µM | > 10 µM
Cc1cc(Nc2ncnc3ccc4c(c23)OC[C@H]2CN4CCN2C)ccc1Oc1ccc2c(c1)ncn2C [Compound 56, (3R)-4-methyl-N-(3-methyl-4-((1-methyl-1H-benzo[d]imidazol-5-yl)oxy)phenyl)-3,4,5,6-tetrahydro-2H-3,7-methano[1,4,7]oxadiazonino[2,3-f]quinazolin-13-amine] | 0.127 µM | > 10 µM
Cc1cc(Nc2ncnc3ccc4c(c23)OC[C@@H]2CN(C)CCN42)ccc1Oc1ccn2ncnc2c1 [Compound 44, (S)—N-(4-([1,2,4]triazolo[1,5-a]pyridin-7-yloxy)-3-methylphenyl)-8-methyl-6,6a,7,8,9,10-hexahydropyrazino[1′,2′:4,5][1,4]oxazino[2,3-f]quinazolin-4-amine] | 0.218 µM | > 10 µM
Cc1cc(Nc2ncnc3ccc4c(c23)OC[C@H]2COCCN42)c(F)cc1Oc1ccn2ncnc2c1 [Compound 100, (R)—N-(4-([1,2,4]triazolo[1,5-a]pyridin-7-yloxy)-2-fluoro-5-methylphenyl)-6a,7,9,10-tetrahydro-6H-[1,4]oxazino[4′,3′:4,5][1,4]oxazino[2,3-f]quinazolin-4-amine] | 0.0822 µM | > 10 µM
Cc1c(Oc2ccn3ncnc3c2)ccc(Nc2ncnc3ccc4c(c23)OC[C@H]2COCCN42)c1F [Compound 99, (R)—N-(4-([1,2,4]triazolo[1,5-a]pyridin-7-yloxy)-2-fluoro-3-methylphenyl)-6a,7,9,10-tetrahydro-6H-[1,4]oxazino[4′,3′:4,5][1,4]oxazino[2,3-f]quinazolin-4-amine] | 0.211 µM | > 10 µM
Cc1cc(Nc2ncnc3cc4c(cc23)N2CCNC[C@H]2CO4)ccc1Oc1ccn2ncnc2c1 [Compound 57, (S)—N-(4-([1,2,4]triazolo[1,5-a]pyridin-7-yloxy)-3-methylphenyl)-1,2,3,4,4a,5-hexahydropyrazino[1′,2′:4,5][1,4]oxazino[3,2-g]quinazolin-11-amine] | 0.0267 µM | > 10 µM
Cc1cc(Nc2ncnc3cc4c(cc23)N2CCN(C)C[C@H]2CO4)ccc1Oc1ccc2c(c1)ncn2C [Compound 62, (S)-3-methyl-N-(3-methyl-4-((1-methyl-1H-benzo[d]imidazol-5-yl)oxy)phenyl)-1,2,3,4,4a,5-hexahydropyrazino[1′,2′:4,5][1,4]oxazino[3,2-g]quinazolin-11-amine] | 0.0385 µM | > 10 µM
Cc1cc(Nc2ncnc3ccc4c(c23)OC[C@H]2CCCN42)ccc1Oc1ccn2ncnc2c1 [Compound 87, (R)—N-(4-([1,2,4]triazolo[1,5-a]pyridin-7-yloxy)-3-methylphenyl)-6a,7,8,9-tetrahydro-6H-pyrrolo[1′,2′:4,5][1,4]oxazino[2,3-f]quinazolin-4-amine] | 0.0755 µM | > 10 µM
Cc1cc(Nc2ncnc3ccc4c(c23)OC[C@H]2CNCCN42)ccc1Oc1ccn2ncnc2c1 [Compound 41, (R)—N-(4-([1,2,4]triazolo[1,5-a]pyridin-7-yloxy)-3-methylphenyl)-6,6a,7,8,9,10-hexahydropyrazino[1′,2′:4,5][1,4]oxazino[2,3-f]quinazolin-4-amine diformic acid] | 0.0577 µM | > 10 µM
Fc1cc(Oc2ccn3ncnc3c2)ccc1Nc1ncnc2cc3c(nc12)N1CCOC[C@H]1CO3 [Compound 104, (S)—N-(4-([1,2,4]triazolo[1,5-a]pyridin-7-yloxy)-2-fluorophenyl)-1,2,4a,5-tetrahydro-4H-[1,4]oxazino[4,3-d]pyrimido[4′,5′:5,6]pyrido[3,2-b][1,4]oxazin-11-amine] | 0.495 µM | > 10 µM
COC(=O)N1CCN2c3ccc4ncnc(Nc5ccc(Oc6ccn7ncnc7c6)c(C)c5)c4c3OC[C@H]2C1 [Compound 110, methyl (R)-4-((4-([1,2,4]triazolo[1,5-a]pyridin-7-yloxy)-3-methylphenyl)amino)-6a,7,9,10-tetrahydropyrazino[1′,2′:4,5][1,4]oxazino[2,3-f]quinazoline-8(6H)-carboxylate] | 0.0747 µM | > 10 µM
Fc1cc(Oc2ccn3ncnc3c2)ccc1Nc1ncnc2ccc3c(c12)OC[C@H]1COCCN31 [Compound 101, (R)—N-(4-([1,2,4]triazolo[1,5-a]pyridin-7-yloxy)-2-fluorophenyl)-6a,7,9,10-tetrahydro-6H-[1,4]oxazino[4′,3′:4,5][1,4]oxazino[2,3-f]quinazolin-4-amine] | 0.503 µM | > 10 µM
COCCN1CCN2c3ccc4ncnc(Nc5ccc(Oc6ccn7ncnc7c6)c(C)c5)c4c3OC[C@H]2C1 [Compound 111, (R)—N-(4-([1,2,4]triazolo[1,5-a]pyridin-7-yloxy)-3-methylphenyl)-8-(2-methoxyethyl)-6,6a,7,8,9,10-hexahydropyrazino[1′,2′:4,5][1,4]oxazino[2,3-f]quinazolin-4-amine] | 0.0457 µM | > 10 µM
Cc1c(Oc2ccn3ncnc3c2)ccc(Nc2ncnc3cc4c(nc23)N2CCN(C)C[C@H]2CO4)c1F [Compound 74, (S)—N-(4-([1,2,4]triazolo[1,5-a]pyridin-7-yloxy)-2-fluoro-3-methylphenyl)-3-methyl-1,2,3,4,4a,5-hexahydropyrazino[1,2-d]pyrimido[4′,5′:5,6]pyrido[3,2-b][1,4]oxazin-11-amine] | 0.0981 µM | > 10 µM
